# Test results as given in patent US6403563B1, “Antitumor composition containing a synergistic combination of an anthracycline derivative with a camptothecin derivate” (Pharmacia & Upjohn S.p.A., priority 1998, dated 2002).
# Several values for one entry are separate records, joined by “and”; a condition that tells them apart may be missing. Equal entries are not always repeated.
# Columns and labels:
# [1] = system: disseminated L1210 murine leukemia; experiment: Antileukemic activity against disseminated L1210 leukemia in mice; assay type: in vivo
# Text: For these experiments Ia was solubilized in [Cremophor®/EtOH=6.5:3.5]/[normal saline]=20/80 v/v, while CPT-11 was solubilized in water.
# [2] = system: intracranially implanted P388 tumor cells; experiment: Activity against intracranially transplanted P388 murine leukemia; assay type: in vivo, mice
# Method: Brain tumors/metastases are generally unresponsive largely because cytotoxic drugs fail to cross the blood brain barrier. […] The compound was administered i.v. on days 1,5,9. Results reported in Tab.
# [3] = Crossing of the blood brain barrier
# [4] = CPT-11 alone 20 mg/kg/day iv days +1,2
# [5] = Ia alone 2.9 mg/kg/day iv day +3
# [6] = Ia alone 3.8 mg/kg/day iv day +3
Structure (SMILES),"LTS (Long Term Survivors >60 days) [1, 4]","Tox (number of toxic deaths/number of mice) [1, 4]","ILS % (increase in life span) ([1]; CPT-11 alone 20 mg/kg/day iv days +1,2, L1210 10^5/mouse iv day 0)","Tox (number of toxic deaths/number of mice) ([2]; Ia 2.1 mg/kg/day i.v. days 1, 5, 9)","ILS % (increase in life span) ([2]; Ia 2.1 mg/kg/day i.v. days 1, 5, 9, P388 10^4/mouse intracranially day 0)","Tox (number of toxic deaths/number of mice) ([2]; Ia 2.7 mg/kg/day i.v. days 1, 5, 9)","ILS % (increase in life span) ([2]; Ia 2.7 mg/kg/day i.v. days 1, 5, 9 (optimal cumulative dose 8.1 mg/kg))","ILS % (increase in life span) [1, 5]","LTS (Long Term Survivors >60 days) [1, 5]","Tox (number of toxic deaths/number of mice) [1, 5]","ILS % (increase in life span) [1, 6]","LTS (Long Term Survivors >60 days) [1, 6]","Tox (number of toxic deaths/number of mice) [1, 6]",crossing of the blood brain barrier [3]
"CCc1c2c(nc3ccc(OC(=O)N4CCC(N5CCCCC5)CC4)cc13)-c1cc3c(c(=O)n1C2)COC(=O)[C@]3(O)CC [CPT-11, Irinotecan, reference compound]",1/10,without toxicity and 0/10,100%,–,–,–,–,–,–,–,–,–,–,–
"CC(=O)C1(O)Cc2c(O)c3c(c(O)c2C(OC2CC(N4CC4)C(OS(C)(=O)=O)C(C)O2)C1)C(=O)c1ccccc1C3=O (centres unmarked) [Ia, 4-demethoxy-3′-deamino-3′-aziridinyl-4′-methansulfonyl daunorubicin]",–,–,–,0/20,44%,1/20,46%,92%,0/10,without toxicity and 0/10,108%,0/10,without toxicity and 0/10,crosses the blood brain barrier
